Test results: the Kinase Knowledgebase extract (Sharma et al. 2016)

What was measured:
[1] = biological target: PIK3CD (Human) (UniProt O00329); assay: Cell-Based Assay; conditions: rat-1
[2] = biological target: PIK3CA (human) (UniProt P42336); assay: Cell-Based Assay; conditions: rat-1
[3] = biological target: PIK3CG (human) (UniProt P48736); assay: Cell-Based Assay; conditions: u937
[4] = biological target: PIK3CD (Human) (UniProt O00329); assay: Enzyme Assay
[5] = biological target: PIK3CA (human) (UniProt P42336); assay: Enzyme Assay
[6] = biological target: PIK3CG (human) (UniProt P48736); assay: Enzyme Assay

Chain of PIK3CD (Human) (O00329 whole entry, looked up): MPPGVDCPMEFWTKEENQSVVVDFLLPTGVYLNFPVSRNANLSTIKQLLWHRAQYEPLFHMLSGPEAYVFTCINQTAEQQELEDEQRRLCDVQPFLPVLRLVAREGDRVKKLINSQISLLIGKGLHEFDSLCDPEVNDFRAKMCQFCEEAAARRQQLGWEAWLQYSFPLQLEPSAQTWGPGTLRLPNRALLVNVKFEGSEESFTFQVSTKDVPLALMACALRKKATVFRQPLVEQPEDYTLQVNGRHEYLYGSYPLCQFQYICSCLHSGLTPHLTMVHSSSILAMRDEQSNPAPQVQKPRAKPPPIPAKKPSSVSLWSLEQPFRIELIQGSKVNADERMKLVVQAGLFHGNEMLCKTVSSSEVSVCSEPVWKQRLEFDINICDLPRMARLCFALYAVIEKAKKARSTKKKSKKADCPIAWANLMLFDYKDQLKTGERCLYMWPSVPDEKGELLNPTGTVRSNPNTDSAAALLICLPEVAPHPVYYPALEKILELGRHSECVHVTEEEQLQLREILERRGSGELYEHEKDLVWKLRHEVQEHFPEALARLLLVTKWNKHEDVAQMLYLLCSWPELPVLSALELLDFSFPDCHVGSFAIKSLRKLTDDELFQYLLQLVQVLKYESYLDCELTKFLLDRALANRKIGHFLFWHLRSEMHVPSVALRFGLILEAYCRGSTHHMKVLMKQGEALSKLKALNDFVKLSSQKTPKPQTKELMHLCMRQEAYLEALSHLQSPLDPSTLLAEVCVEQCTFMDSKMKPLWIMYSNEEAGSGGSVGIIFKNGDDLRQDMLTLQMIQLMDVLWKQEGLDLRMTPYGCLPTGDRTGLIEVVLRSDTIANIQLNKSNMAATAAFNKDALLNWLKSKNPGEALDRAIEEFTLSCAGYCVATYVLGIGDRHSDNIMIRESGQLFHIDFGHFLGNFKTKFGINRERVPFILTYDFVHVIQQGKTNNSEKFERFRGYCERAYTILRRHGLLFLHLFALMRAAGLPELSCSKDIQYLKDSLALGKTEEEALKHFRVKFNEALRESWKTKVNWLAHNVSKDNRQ
Chain of PIK3CG (human) (P48736 whole entry, looked up): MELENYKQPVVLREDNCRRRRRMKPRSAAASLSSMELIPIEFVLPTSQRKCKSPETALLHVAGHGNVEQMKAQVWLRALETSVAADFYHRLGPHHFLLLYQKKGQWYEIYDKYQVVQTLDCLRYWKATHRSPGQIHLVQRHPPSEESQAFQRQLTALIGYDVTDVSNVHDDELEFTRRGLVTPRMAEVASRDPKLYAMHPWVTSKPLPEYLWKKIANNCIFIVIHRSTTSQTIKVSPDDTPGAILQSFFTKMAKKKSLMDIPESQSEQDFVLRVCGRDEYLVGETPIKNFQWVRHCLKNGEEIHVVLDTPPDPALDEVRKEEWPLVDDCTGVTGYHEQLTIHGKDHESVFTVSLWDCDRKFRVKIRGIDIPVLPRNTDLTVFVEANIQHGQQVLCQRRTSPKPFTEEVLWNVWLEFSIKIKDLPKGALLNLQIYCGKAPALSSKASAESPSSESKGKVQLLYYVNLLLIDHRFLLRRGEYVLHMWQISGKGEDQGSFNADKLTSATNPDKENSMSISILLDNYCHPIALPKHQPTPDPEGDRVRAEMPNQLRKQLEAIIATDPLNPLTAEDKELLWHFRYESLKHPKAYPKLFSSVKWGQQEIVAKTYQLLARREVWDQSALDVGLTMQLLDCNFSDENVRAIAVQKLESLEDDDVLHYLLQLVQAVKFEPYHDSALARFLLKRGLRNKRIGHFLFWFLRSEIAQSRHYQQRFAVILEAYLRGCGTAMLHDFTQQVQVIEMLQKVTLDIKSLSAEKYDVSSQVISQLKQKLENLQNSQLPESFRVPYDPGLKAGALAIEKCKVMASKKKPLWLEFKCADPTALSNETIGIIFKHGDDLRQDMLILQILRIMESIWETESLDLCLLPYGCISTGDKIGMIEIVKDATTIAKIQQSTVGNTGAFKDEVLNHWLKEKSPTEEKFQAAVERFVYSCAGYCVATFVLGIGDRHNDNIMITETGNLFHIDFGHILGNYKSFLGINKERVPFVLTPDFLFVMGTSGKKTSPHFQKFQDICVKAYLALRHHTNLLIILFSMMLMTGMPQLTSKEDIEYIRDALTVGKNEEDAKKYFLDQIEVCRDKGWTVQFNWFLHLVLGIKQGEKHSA
Chain of PIK3CA (human) (P42336 whole entry, looked up): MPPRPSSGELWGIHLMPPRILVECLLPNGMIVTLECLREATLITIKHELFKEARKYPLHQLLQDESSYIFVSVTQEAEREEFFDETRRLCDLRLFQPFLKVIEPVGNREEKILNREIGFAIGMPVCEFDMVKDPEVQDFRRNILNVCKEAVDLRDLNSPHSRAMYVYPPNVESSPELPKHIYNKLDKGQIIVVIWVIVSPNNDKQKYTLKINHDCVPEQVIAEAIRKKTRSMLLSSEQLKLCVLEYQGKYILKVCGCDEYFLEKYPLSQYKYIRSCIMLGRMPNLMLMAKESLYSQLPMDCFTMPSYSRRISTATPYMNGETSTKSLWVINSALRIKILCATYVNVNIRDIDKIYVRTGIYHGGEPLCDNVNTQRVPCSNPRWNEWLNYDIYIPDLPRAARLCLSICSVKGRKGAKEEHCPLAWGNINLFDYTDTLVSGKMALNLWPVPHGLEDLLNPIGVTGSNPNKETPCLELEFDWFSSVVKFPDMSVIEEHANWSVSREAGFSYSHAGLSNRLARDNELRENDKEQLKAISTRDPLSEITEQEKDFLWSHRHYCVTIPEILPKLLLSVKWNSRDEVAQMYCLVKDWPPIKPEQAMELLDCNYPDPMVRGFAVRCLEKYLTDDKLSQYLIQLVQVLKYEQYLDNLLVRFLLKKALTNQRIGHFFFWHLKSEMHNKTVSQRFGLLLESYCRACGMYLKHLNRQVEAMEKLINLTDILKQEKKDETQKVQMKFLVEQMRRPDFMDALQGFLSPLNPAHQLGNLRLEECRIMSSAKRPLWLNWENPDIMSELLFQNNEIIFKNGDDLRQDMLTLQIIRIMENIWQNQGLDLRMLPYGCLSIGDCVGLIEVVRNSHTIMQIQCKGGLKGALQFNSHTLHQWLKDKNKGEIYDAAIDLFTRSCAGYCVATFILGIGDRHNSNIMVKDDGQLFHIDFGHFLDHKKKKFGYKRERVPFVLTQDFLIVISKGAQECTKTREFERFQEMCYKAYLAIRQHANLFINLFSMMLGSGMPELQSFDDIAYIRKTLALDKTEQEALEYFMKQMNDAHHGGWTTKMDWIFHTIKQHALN

| Structure (SMILES) | IC50 [1] [nM] | IC50 [2] [nM] | IC50 [3] [nM] | IC50 [4] [nM] | IC50 [5] [nM] | IC50 [6] [nM] |
| --- | --- | --- | --- | --- | --- | --- |
| Cc1nc(N)nc(N2CCC[C@H]2c2nc3cccc(Cl)c3c(=O)n2N2CCOCC2)c1C#N | 15 | 1790 | 27 | 18 | 790 | 71 |
| Cc1nc(N)nc(N2C[C@@H](O)C[C@H]2c2nc3cccc(C)c3c(=O)n2-c2ccccc2)c1C#N | < 3 | 601 | 35 | < 3 | 160 | < 3 |
| Cc1ccccc1-n1c([C@@H]2CCCN2c2ncnc(N)c2C#N)nc2cccc(Cl)c2c1=O | 13 | 2200 | 27 | < 3 | 5210 | 70 |
| Cc1nc(N)nc(N2C[C@@H](F)C[C@H]2c2nc3cccc(C(F)(F)F)c3c(=O)n2-c2ccccc2)c1C#N | 12 | 2060 | 22 | 10 | 590 | 47 |
| Nc1nc(N2C[C@@H](O)C[C@H]2c2nc3cccc(C(F)(F)F)c3c(=O)n2-c2ccccc2)c2nccn2n1 | 90 | > 10000 | 31 | 26 | 3300 | 31 |
| CS(=O)(=O)c1cccc2nc([C@@H]3CCCN3c3ncnc(N)c3C#N)n(-c3ccccc3)c(=O)c12 | 38 | 4600 | 821 | 7 | 5100 | 1200 |
| N#Cc1c(N)ncnc1N1C[C@@H](O)C[C@H]1c1nc2cccc(F)c2c(=O)n1-c1ccccc1 | 23 | > 10000 | 709 | 82 | > 10000 | 2100 |
| Cc1nc(N)nc(N2C[C@@H](O)C[C@H]2c2nc3ccc(F)c(C4CC4)c3c(=O)n2-c2ccccc2)c1C#N | 6 | 2370 | 35 | 4 | 110 | 11 |
| N#Cc1c(N)ncnc1N1CCC[C@H]1c1nc2cccc(O)c2c(=O)n1-c1ccccc1 | 15 | > 10000 | 494 | 3 | 1430 | 110 |
| O=c1c2c(Cl)cccc2nc([C@@H]2C[C@H](O)CN2c2ncnc3[nH]cnc23)n1-c1ccccc1 | 21 | 4310 | 178 | 5 | 1400 | 19 |
| CO[C@H]1C[C@@H](c2nc3cccc(Cl)c3c(=O)n2-c2ccccc2)N(c2ncnc(N)c2C#N)C1 | 10 | 4040 | 209 | 4 | 1300 | 35 |
| Cc1nc(N)nc(N2CCC[C@H]2c2nc3cccc(S(C)(=O)=O)c3c(=O)n2-c2ccccc2)c1C#N | 42 | 4600 | 343 | 13 | 1100 | 75 |
| Cc1nc(N)nc(N2C[C@@H](F)C[C@H]2c2nc3cccc(C(F)(F)F)c3c(=O)n2-c2cccc(F)c2)c1C#N | 14 | 3410 | 42 | 14 | 910 | 42 |
| N#Cc1c(N)ncnc1N1CCC[C@H]1c1nc2cccc(C(F)(F)F)c2c(=O)n1-c1cccc(F)c1 | 38 | 9950 | 718 | 19 | 5600 | 660 |
| CO[C@H]1C[C@@H](c2nc3cccc(Cl)c3c(=O)n2C2CC2)N(c2ncnc(N)c2C#N)C1 | 26 | 3230 | 473 | 128 | 2800 | 417 |
| Nc1nc(N2C[C@@H](O)C[C@H]2c2nc3cccc(C(F)(F)F)c3c(=O)n2-c2ccccc2)c2nc[nH]c2n1 | 87 | 7540 | 38 | 11 | 510 | 27 |
| Cc1c(F)ccc2nc([C@@H]3C[C@H](O)CN3c3ncnc(N)c3C#N)n(-c3ccccc3)c(=O)c12 | 7 | 2720 | 331 | 10 | 2200 | 370 |
| CC1(n2c([C@@H]3CCCN3c3ncnc(N)c3C#N)nc3cccc(Cl)c3c2=O)CC1 | 5 | 4230 | 37 | < 3 | 590 | 19 |
| N#Cc1cnc(N)nc1N1C[C@@H](O)C[C@H]1c1nc2cccc(C(F)(F)F)c2c(=O)n1-c1ccccc1 | 141 | > 10000 | 113 | 390 | 6600 | 320 |

| Structure (SMILES) | IC50 [1] [nM] | IC50 [2] [nM] | IC50 [3] [nM] | IC50 [4] [nM] | IC50 [5] [nM] | IC50 [6] [nM] |
| --- | --- | --- | --- | --- | --- | --- |
| N#Cc1c(N)ncnc1N1C[C@@H](O)C[C@H]1c1nc2ccc(F)c(Cl)c2c(=O)n1-c1ccccc1 | 27 | 8020 | 26 | 47 | 2800 | 990 |
| Nc1nc(N2CCC[C@H]2c2nc3cccc(C(F)(F)F)c3c(=O)n2-c2ccccc2)c2ncsc2n1 | 110 | > 10000 | 40 | 48 | 1700 | 87 |
| Cc1nc(N)nc(N2C[C@@H](O)C[C@H]2c2nc3cccc(C(F)(F)F)c3c(=O)n2-c2cc(F)cc(F)c2)c1C#N | 42 | 8840 | 60 | 97 | 3100 | 890 |
| Nc1nc(N2C[C@@H](F)C[C@H]2c2nc3cccc(C(F)(F)F)c3c(=O)n2-c2cccc(F)c2)c2nc[nH]c2n1 | 50 | 8250 | 71 | 26 | 2500 | 38 |
| N#Cc1c(N)ncnc1N1CCC[C@H]1c1nc2cccc(C(F)(F)F)c2c(=O)n1-c1ccccc1 | 62 | > 10000 | 261 | 12 | 2800 | 140 |
| N#Cc1c(N)ncnc1N1C[C@@H](O)C[C@H]1c1nc2cccc(Cl)c2c(=O)n1-c1ccccc1 | < 3 | 2850 | 268 | 4 | 1000 | 50 |
| N#Cc1c(N)ncnc1N1C[C@@H](O)C[C@H]1c1nc2cccc(C(F)(F)F)c2c(=O)n1-c1cccc(F)c1 | 29 | > 10000 | 146 | 82 | 9300 | 720 |
| Nc1nc(N2CCC[C@H]2c2nc3cccc(Cl)c3c(=O)n2-c2ccccc2)c2ncsc2n1 | < 3 | > 10000 | 59 | 10 | 350 | 19 |
| N#Cc1c(N)ncnc1N1CCC[C@H]1c1nc2cccc(F)c2c(=O)n1-c1ccccc1 | < 3 | > 10000 | 148 | 19 | 3000 | 650 |
| Nc1nc(N2CCC[C@H]2c2nc3cccc(Cl)c3c(=O)n2N2CCOCC2)c2nc[nH]c2n1 | 65 | > 10000 | 1820 | 42 | 4600 | 63 |
| Cc1nc(N)nc(N2C[C@@H](O)C[C@H]2c2nc3ccc(F)c(Cl)c3c(=O)n2-c2ccccc2)c1C#N | 10 | 1950 | 7 | 13 | 280 | 14 |
| N#Cc1c(N)ncnc1N1CCC[C@H]1c1nc2cccc(Cl)c2c(=O)n1C1CC1 | 43 | 4020 | 74 | 7 | 560 | 25 |
| Nc1nc(N2CCC[C@H]2c2nc3cccc(C(F)(F)F)c3c(=O)n2-c2ccccc2)c2nccn2n1 | 8040 | > 10000 | 312 | 67 | 2800 | 93 |
| CO[C@H]1C[C@@H](c2nc3cccc(Cl)c3c(=O)n2-c2ccccc2)N(c2nc(N)nn3ccnc23)C1 | 204 | > 10000 | 793 | 140 | 7200 | 78 |
| Cc1nc(N)nc(N2C[C@@H](O)C[C@H]2c2nc3cccc(Cl)c3c(=O)n2C2CC2)c1C#N | 86 | 4230 | 219 | 221 | 698 | 85 |
| Cc1nc(N)nc(N2CCC[C@H]2c2nc3cccc(C(F)(F)F)c3c(=O)n2-c2cccc(F)c2)c1C#N | 37 | 4440 | 164 | 17 | 890 | 82 |
| N#Cc1c(N)ncnc1N1C[C@@H](O)C[C@H]1c1nc2ccc(F)c(F)c2c(=O)n1-c1ccccc1 | 45 | > 10000 | 1590 | 96 | 4000 | 1300 |
| CO[C@H]1C[C@@H](c2nc3cccc(Cl)c3c(=O)n2-c2ccccc2)N(c2nc(N)nc(C)c2C#N)C1 | 6 | 1320 | 38 | 53 | 565 | 30 |
| O=c1c2c(C(F)(F)F)cccc2nc([C@@H]2C[C@H](O)CN2c2ncnc3[nH]cnc23)n1-c1ccccc1 | 91 | 7220 | 34 | 16 | 1400 | 210 |
